In patent US7211588B2, “N-substituted indolyl-3-glyoxylamides, their use as medicaments and process for their preparation” (Zentaris GmbH, priority 2003, dated 2007):
Converted amounts (≈) assume the structure as drawn.

Key:
[1] = tested on: human cervical carcinoma cell line KB/HeLa (ATCC CCL17); test: XTT proliferation/cytotoxicity test, KB/HeLa; type: cell-based; details: KB/HeLa cells
Text: (§1) Substance 1 was investigated for its antiproliferative action in a proliferation test using established tumor cell (D. A. Scuderio et al. Cancer Res. 1988, 48, 4827–4833). The test used determines the cellular dehydrogenase activity and permits a determination of the cell vitality and, indirectly, of the cell count. The cell lines used are the human cervical carcinoma cell line KB/HeLa (ATCC CCL17), the ovarial adeno carcinoma cell line SKOV-3 (ATCC HTB77), the human glioblastoma cell line SF-268 (NCl 503138) and the pulmonary carcinoma cell line NCl-H460 (NCl 503473).

[2] = tested on: resistant line L1210/mdr (L1210VCR); test: XTT proliferation test, L1210VCR; type: cell-based, murine; details: Mus musculus, resistant L1210VCR cells
Text: as §1, with “503473). Substance 1 was further characterized by testing with regard to multidrug-resistant cell lines as compared with the nonresistant wild-type cell lines. The cell lines tested are the murine cell line L1210, the acute myeloid leukemia cell line LT12 and the resistant lines L1210/mdr and LT12/mdr. Further test systems used are the murine P388 cell line (methylcholanthrene-induced lymphoid neoplasm) and the doxorubicin-resistant P388 cell line.” for “503473).”

[3] = tested on: acute myeloid leukemia cell line LT12; test: XTT proliferation test, LT12; type: cell-based; details: Rattus norvegicus, LT12 wild-type cells
Text: as §1, with “503473). Substance 1 was further characterized by testing with regard to multidrug-resistant cell lines as compared with the nonresistant wild-type cell lines. The cell lines tested are the murine cell line L1210, the acute myeloid leukemia cell line LT12 and the resistant lines L1210/mdr and LT12/mdr. Further test systems used are the murine P388 cell line (methylcholanthrene-induced lymphoid neoplasm) and the doxorubicin-resistant P388 cell line.” for “503473).”

[4] = tested on: murine cell line L1210; test: XTT proliferation test, L1210; type: cell-based; details: Mus musculus, L1210 wild-type cells
Text: as §1, with “503473). Substance 1 was further characterized by testing with regard to multidrug-resistant cell lines as compared with the nonresistant wild-type cell lines. The cell lines tested are the murine cell line L1210, the acute myeloid leukemia cell line LT12 and the resistant lines L1210/mdr and LT12/mdr. Further test systems used are the murine P388 cell line (methylcholanthrene-induced lymphoid neoplasm) and the doxorubicin-resistant P388 cell line.” for “503473).”

[5] = tested on: resistant line LT12/mdr; test: XTT proliferation test, LT12mdr; type: cell-based; details: Rattus norvegicus, multidrug-resistant LT12mdr cells
Text: as §1, with “503473). Substance 1 was further characterized by testing with regard to multidrug-resistant cell lines as compared with the nonresistant wild-type cell lines. The cell lines tested are the murine cell line L1210, the acute myeloid leukemia cell line LT12 and the resistant lines L1210/mdr and LT12/mdr. Further test systems used are the murine P388 cell line (methylcholanthrene-induced lymphoid neoplasm) and the doxorubicin-resistant P388 cell line.” for “503473).”

[6] = tested on: murine P388 cell line (methylcholanthrene-induced lymphoid neoplasm); test: XTT proliferation test, P388; type: cell-based; details: Mus musculus, P388 wild-type cells
Text: as §1, with “503473). Substance 1 was further characterized by testing with regard to multidrug-resistant cell lines as compared with the nonresistant wild-type cell lines. The cell lines tested are the murine cell line L1210, the acute myeloid leukemia cell line LT12 and the resistant lines L1210/mdr and LT12/mdr. Further test systems used are the murine P388 cell line (methylcholanthrene-induced lymphoid neoplasm) and the doxorubicin-resistant P388 cell line.” for “503473).”

[7] = tested on: human glioblastoma cell line SF-268 (NCl 503138); test: XTT proliferation/cytotoxicity test, SF-268; type: cell-based; details: SF-268 cells
Text: as §1

[8] = tested on: doxorubicin-resistant P388 cell line; test: XTT proliferation test, P388ADR; type: cell-based, murine; details: Mus musculus, doxorubicin-resistant P388ADR cells
Text: as §1, with “503473). Substance 1 was further characterized by testing with regard to multidrug-resistant cell lines as compared with the nonresistant wild-type cell lines. The cell lines tested are the murine cell line L1210, the acute myeloid leukemia cell line LT12 and the resistant lines L1210/mdr and LT12/mdr. Further test systems used are the murine P388 cell line (methylcholanthrene-induced lymphoid neoplasm) and the doxorubicin-resistant P388 cell line.” for “503473).”

[9] = tested on: pulmonary carcinoma cell line NCl-H460 (NCl 503473); test: XTT proliferation/cytotoxicity test, NCI-H460; type: cell-based; details: Homo sapiens, NCI-H460 cells
Text: as §1

[10] = tested on: ovarial adeno carcinoma cell line SKOV-3 (ATCC HTB77); test: XTT proliferation/cytotoxicity test, SK-OV-3; type: cell-based; details: Homo sapiens, SK-OV-3 cells
Text: as §1

O=C(C(=O)N(C(=O)c1ccccc1)c1ccc2ncccc2c1)c1cn(Cc2ccc(Cl)cc2)c2ccccc12 [Compound 1, N-{2-[1-(4-Chlorobenzyl)-1H-indol-3-yl]-2-oxoacetyl}-N-quinolin-6-ylbenzamide]
IC50 [1]: 0.17 µg/mL (≈ 0.312 µM)
IC50 [2]: 0.577 µg/mL (≈ 1.06 µM)
IC50 [3]: 0.226 µg/mL (≈ 0.415 µM)
IC50 [4]: 0.255 µg/mL (≈ 0.469 µM)
melting point: 213 °C
IC50 [5]: 0.277 µg/mL (≈ 0.509 µM)
IC50 [6]: 0.219 µg/mL (≈ 0.403 µM)
IC50 [7]: 0.261 µg/mL (≈ 0.48 µM)
IC50 [8]: 0.252 µg/mL (≈ 0.463 µM)
IC50 [9]: 0.222 µg/mL (≈ 0.408 µM)
IC50 [10]: 0.139 µg/mL (≈ 0.256 µM)
